{"source": "patent US5998435A", "about": "“Use of a tachykinin antagonist for the manufacture of a medicament for the treatment of emesis” (priority 1998, dated 1999)", "key": {"NK1 receptor [1]": {"biological_target": "T1, NK1 receptor (Meriones unguiculatus, UniProt Q5DUB1)", "T1 construct": "centrally NK1 receptor mediated foot-tapping response was examined in the gerbil; from tissue; host or cells: whole animal (gerbil), central NK1 receptors, i.c.v. agonist", "T1 sequence (Q5DUB1 whole entry)": "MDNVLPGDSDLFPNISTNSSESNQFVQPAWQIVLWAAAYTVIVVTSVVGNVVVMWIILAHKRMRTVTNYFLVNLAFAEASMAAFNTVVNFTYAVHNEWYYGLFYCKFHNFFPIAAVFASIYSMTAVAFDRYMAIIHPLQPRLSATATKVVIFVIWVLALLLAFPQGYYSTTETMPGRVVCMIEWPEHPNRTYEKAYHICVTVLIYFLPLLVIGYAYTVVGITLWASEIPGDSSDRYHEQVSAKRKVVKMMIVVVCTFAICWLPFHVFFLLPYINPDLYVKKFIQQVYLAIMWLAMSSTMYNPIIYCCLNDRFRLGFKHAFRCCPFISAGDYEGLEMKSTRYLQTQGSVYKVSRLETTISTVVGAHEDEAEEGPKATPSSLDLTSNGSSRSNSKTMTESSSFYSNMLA", "conditions": "administered systemically 30 minutes before [Sar9,Met(O2)11]-substance P; cited from earlier work"}, "NK1 receptor [2]": {"biological_target": "T1, NK1 receptor", "assay": "[Sar9,Met(O2)11]substance P-induced hind foot tapping in the gerbil", "assay_type": "in vivo", "description": "FIG. 3. […] The duration of foot tapping (sec) was recorded for 5 minutes immediately following recovery of the animals righting reflex.\nGerbils were anaesthetized with isoflurane, and an incision was made to expose the skull. […] Animals were placed individually into observation boxes, and duration of hind foot tapping was recorded for 5 minutes immediately following recovery of the animals' righting reflex."}, "cisplatin-induced emesis [3]": {"test_system": "cisplatin-induced emesis", "assay": "Cisplatin-induced acute emesis in the ferret", "assay_type": "in vivo", "conditions": "ferret", "source_text": "Adult male albino Fitch ferrets (>1 kg weight) were individually housed with free access to food (SDS Diet \"C\", Special Diet Services Ltd, Essex, U.K.). Thirty minutes prior to the commencement of the studies, the ferrets were presented with 100 g of commercially available tinned cat food."}, "cisplatin-induced emesis [4]": {"test_system": "cisplatin-induced emesis", "conditions": "cisplatin 5 mg/kg i.p."}, "[5]": {"conditions": "The Compound 10 mg/kg or ondansetron 1 mg/kg i.p. three times a day"}}}
{"smiles": "COc1ccccc1CN[C@H]1CCCN[C@H]1c1ccccc1", "note": "[CP-99,994]", "values": [{"measurement": "inhibition of the foot-tapping response", "setting": "NK1 receptor [1]", "result": "dose-dependentlyinhibit"}]}
{"smiles": "CN(C)CC(=O)OCC(NC(=O)C(C)(Cc1c[nH]c2ccccc12)NC(=O)OCc1cc2ccccc2o1)c1ccccc1", "note": "(stereo not shown) [Compound 2, Dimethylamino-acetic acid 2-[2-(benzofuran-2-ylmethoxycarbonylamino)-3-(1H-indol-3-yl)-2-methyl-propionylamino]-2-phenyl-ethyl ester]", "values": [{"measurement": "block of the foot-tapping response, s.c.", "setting": "NK1 receptor [2]; 1-100 mg/kg s.c.", "result": "failed to block"}, {"measurement": "MED, antagonism of foot-tapping response, i.c.v.", "setting": "NK1 receptor [2]; i.c.v. administration", "result": 10, "unit": "μg/animal"}, {"measurement": "block of cisplatin-induced emesis", "setting": "cisplatin-induced emesis [3]", "result": "inability"}]}
{"smiles": "Cc1nccn1CC1CCc2c(c3ccccc3n2C)C1=O", "note": "(stereo not shown) [ondansetron]", "values": [{"measurement": "delayed emesis during the 3 days (3-72 hours)", "setting": "cisplatin-induced emesis [4]; [5]", "result": "much lower activity"}, {"measurement": "retching and vomiting during the first 3 hours of the emetic response (acute)", "setting": "cisplatin-induced emesis [4]; [5]", "result": "completely blocked"}, {"measurement": "effect during the start of the delayed response (Day 1, 3-24 hours)", "setting": "cisplatin-induced emesis [4]; ondansetron 1 mg/kg i.p. tid", "result": "failed to show any effect"}]}
